Measured values published in patent US20240025906A1 (NEURON23, INC., priority 2022, published 2024).

Tests used:
[1] = test system: JAK1/TYK2 pSTAT5 (Tyr694/699) in THP-1 cell line; assay: IFNa-stimulated JAK1/TYK2 pSTAT5 (Tyr694/699) inhibition cellular assay, AlphaLISA; type: cell-based; conditions: Homo sapiens; THP-1 cells, IFNa-stimulated, AlphaLISA (Assay B); read-out: Cellular_THP1_IFNa-pSTATS_TYK2
Outline: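 The readout is AlphaLISA signal at 615 nm for phospho-STAT5 in THP-1 lysates after IFNa stimulation (added at 100 ng/mL, 30 min, 37 °C). Cells had compound for 1 h beforehand across eight 6-fold concentrations up to 10000 nM final. IC50s are 4PL fits with bottom and Hill slope constrained.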

TYK2 JH2 = target: T1, TYK2 JH2 (Homo sapiens, UniProt P29597); assay: TYK2 JH2 binding assay (KINOMEscan KdELECT competitive binding); conditions: TYK2 JH2 domain, KINOMEscan KdELECT (Assay A); read-out: Biochemical TYK2_DiscoverX_JH2_BND_Kd
T1 construct: purchased DiscoverX (KINOMEscan KdELECT service); host or cells: E. coli BL21-derived (T7 phage display) or HEK-293
T1 sequence (P29597 589-875 limits assumed): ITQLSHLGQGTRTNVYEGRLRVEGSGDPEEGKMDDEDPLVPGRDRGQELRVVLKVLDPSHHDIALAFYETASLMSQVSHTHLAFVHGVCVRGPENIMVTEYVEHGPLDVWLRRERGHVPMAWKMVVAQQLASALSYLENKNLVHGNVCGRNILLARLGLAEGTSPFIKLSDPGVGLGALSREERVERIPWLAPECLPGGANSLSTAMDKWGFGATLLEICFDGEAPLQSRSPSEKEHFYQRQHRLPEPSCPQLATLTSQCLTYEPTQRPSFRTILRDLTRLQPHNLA
Outline: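 Kd values come from qPCR measurement of kinase retained on an immobilized-ligand resin after 1 h room-temperature competition with compound in an 11-point, 3-fold series.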

| Structure (SMILES) | IC50 [1] [µM] | Kd (TYK2 JH2) [µM] |
| --- | --- | --- |
| CNc1ncc(C#Cc2ccc3nc(CC(F)(F)F)n(C)c3c2)c2cc(NC(=O)C3CC3)ncc12 [Example 774, N-(5-((1-methyl-2-(2,2,2-trifluoroethyl)-1H-benzo[d]imidazol-6-yl)ethynyl)-8-(methylamino)-2,7-naphthyridin-3-yl)cyclopropanecarboxamide] | ≤ 0.5 | ≤ 0.1 |
| CNc1ncc(C#Cc2ccc3nc(C(F)F)n(C)c3c2)c2cc(NC(=O)[C@H]3C[C@H]3C)ncc12 [Example 775, (1S,2R)—N-(5-((2-(difluoromethyl)-1-methyl-1H-benzo[d]imidazol-6-yl)ethynyl)-8-(methylamino)-2,7-naphthyridin-3-yl)-2-methylcyclopropane-1-carboxamide] | ≤ 0.5 | ≤ 0.1 |
| [2H]C([2H])([2H])Nc1ncc(C#Cc2ccc(OC)cn2)c2cc(NC(=O)C3CC3)ncc12 [Example 778, N-(5-((5-methoxypyridin-2-yl)ethynyl)-8-((methyl-d3)amino)-2,7-naphthyridin-3-yl)cyclopropanecarboxamide] | ≤ 0.5 | ≤ 0.1 |
| [2H]C([2H])([2H])Nc1ncc(C#Cc2ccc(OC)cn2)c2cc(NC(=O)[C@H]3C[C@H]3C)ncc12 [Example 779, (1S,2R)—N-(5-((5-methoxypyridin-2-yl)ethynyl)-8-((methyl-d3)amino)-2,7-naphthyridin-3-yl)-2-methylcyclopropane-1-carboxamide] | ≤ 0.5 | ≤ 0.1 |
| CCc1nc(NC)c2cnc(NC(=O)C3CC3)cc2c1C#Cc1ccc(OC)cc1 [Example 780, N-(6-ethyl-5-((4-methoxyphenyl)ethynyl)-8-(methylamino)-2,7-naphthyridin-3-yl)cyclopropanecarboxamide] | > 0.5 | ≤ 0.1 |
| CNc1nc(C)c(C#Cc2ccc(OC)cc2)c2cc(NC(=O)C3CC3)ncc12 [Example 781, N-(5-((4-methoxyphenyl)ethynyl)-6-methyl-8-(methylamino)-2,7-naphthyridin-3-yl)cyclopropanecarboxamide] | > 0.5 | ≤ 0.1 |
| CNc1ncc(/C=C/c2ccc(OCCOC)cc2)c2cc(NC(=O)C3CC3)ncc12 [Example 782, (E)-N-(5-(4-(2-methoxyethoxy)styryl)-8-(methylamino)-2,7-naphthyridin-3-yl)cyclopropanecarboxamide] | ≤ 0.5 | ≤ 0.1 |
| CNc1ncc(/C=C/c2ccc(CC#N)cc2)c2cc(NC(=O)C3CC3)ncc12 [Example 783, (E)-N-(5-(4-(cyanomethyl)styryl)-8-(methylamino)-2,7-naphthyridin-3-yl)cyclopropanecarboxamide] | ≤ 0.5 | ≤ 0.1 |
| CNc1ncc(/C=C/c2ccc(OCC(C)(C)O)cc2)c2cc(NC(=O)C3CC3)ncc12 [Example 784, (E)-N-(5-(4-(2-hydroxy-2-methylpropoxy)styryl)-8-(methylamino)-2,7-naphthyridin-3-yl)cyclopropanecarboxamide] | ≤ 0.5 | ≤ 0.1 |
| C=C(c1ccc(OCC(C)(C)O)cc1)c1cnc(NC)c2cnc(NC(=O)C3CC3)cc12 [Example 785, N-(5-(1-(4-(2-hydroxy-2-methylpropoxy)phenyl)vinyl)-8-(methylamino)-2,7-naphthyridin-3-yl)cyclopropanecarboxamide] | > 0.5 | ≤ 0.1 |
| CNc1ncc(/C=C/c2ccc(N3C[C@@H](C)O[C@@H](C)C3)cc2)c2cc(NC(=O)C3CC3)ncc12 [Example 786, N-(5-((E)-4-((2R,6S)-2,6-dimethylmorpholino)styryl)-8-(methylamino)-2,7-naphthyridin-3-yl)cyclopropanecarboxamide] | ≤ 0.5 | ≤ 0.1 |
| CNc1ncc(/C=C/c2ccc(N3CCO[C@@H](C)C3)cc2)c2cc(NC(=O)C3CC3)ncc12 [Example 787, (S,E)-N-(8-(methylamino)-5-(4-(2-methylmorpholino)styryl)-2,7-naphthyridin-3-yl)cyclopropanecarboxamide] | ≤ 0.5 | ≤ 0.1 |
| C=C(c1ccc(N2CCO[C@@H](C)C2)cc1)c1cnc(NC)c2cnc(NC(=O)C3CC3)cc12 [Example 788, (S)—N-(8-(methylamino)-5-(1-(4-(2-methylmorpholino)phenyl)vinyl)-2,7-naphthyridin-3-yl)cyclopropanecarboxamide] | > 0.5 | 0.1 to 1 |
| CNc1ncc(/C=C/c2ccc(N3CCOCC3)cc2)c2cc(NC(=O)C3CC3)ncc12 [Example 792, (E)-N-(8-(methylamino)-5-(4-morpholinostyryl)-2,7-naphthyridin-3-yl)cyclopropanecarboxamide] | ≤ 0.5 | ≤ 0.1 |
| C=C(c1ccc(N2CCOCC2)cc1)c1cnc(NC)c2cnc(NC(=O)C3CC3)cc12 [Example 793, N-(8-(methylamino)-5-(1-(4-morpholinophenyl)vinyl)-2,7-naphthyridin-3-yl)cyclopropanecarboxamide] | > 0.5 | ≤ 0.1 |
| CNc1ncc(/C=C/c2ccc(OCCC#N)cc2)c2cc(NC(=O)C3CC3)ncc12 [Example 794, (E)-N-(5-(4-(2-cyanoethoxy)styryl)-8-(methylamino)-2,7-naphthyridin-3-yl)cyclopropanecarboxamide] | ≤ 0.5 | ≤ 0.1 |
| CNc1ncc(/C=C/c2ccc(O)cc2)c2cc(Nc3ccccn3)ncc12 [Example 795, (E)-4-(2-(1-(methylamino)-6-(pyridin-2-ylamino)-2,7-naphthyridin-4-yl)vinyl)phenol] | ≤ 0.5 | ≤ 0.1 |
| CNc1ncc(-c2cc3ccc(N4CCOCC4)cn3n2)c2cc(NC(=O)C3CC3)ncc12 [Example 796, N-(8-(methylamino)-5-(6-morpholinopyrazolo[1,5-a]pyridin-2-yl)-2,7-naphthyridin-3-yl)cyclopropanecarboxamide] | ≤ 0.5 | ≤ 0.1 |
| CNc1ncc(-c2cc3ccc(N4CCO[C@@H](C)C4)cn3n2)c2cc(NC(=O)[C@H]3C[C@H]3C)ncc12 [Example 798, (1S,2R)-2-methyl-N-(8-(methylamino)-5-(6-((S)-2-methylmorpholino)pyrazolo[1,5-a]pyridin-2-yl)-2,7-naphthyridin-3-yl)cyclopropane-1-carboxamide] | ≤ 0.5 | ≤ 0.1 |
| [2H]C([2H])([2H])Nc1ncc(/C=C/c2ccc(OCCC#N)cc2)c2cc(NC(=O)[C@H]3C[C@H]3C)ncc12 [Example 799, (1S,2R)—N-(5-((E)-4-(2-cyanoethoxy)styryl)-8-((methyl-d3)amino)-2,7-naphthyridin-3-yl)-2-methylcyclopropane-1-carboxamide] | ≤ 0.5 | ≤ 0.1 |
| CNc1nc(CO)c(C#Cc2ccc(OC)cn2)c2cc(NC(=O)C3CC3)ncc12 [Example 800, N-(6-(hydroxymethyl)-5-((5-methoxypyridin-2-yl)ethynyl)-8-(methylamino)-2,7-naphthyridin-3-yl)cyclopropanecarboxamide] | ≤ 0.5 | ≤ 0.1 |
| CNc1ncc(C#Cc2ccc3oc(C)nc3c2)c2cc(NC(=O)C3CC3)ncc12 [Example 801, N-(8-(methylamino)-5-((2-methylbenzo[d]oxazol-5-yl)ethynyl)-2,7-naphthyridin-3-yl)cyclopropanecarboxamide] | ≤ 0.5 | ≤ 0.1 |
| CNc1ncc(C#Cc2ccnn2C)c2cc(NC(=O)C3CC3)ncc12 [Example 804, N-(5-((1-methyl-1H-pyrazol-5-yl)ethynyl)-8-(methylamino)-2,7-naphthyridin-3-yl)cyclopropanecarboxamide] | ≤ 0.5 | ≤ 0.1 |
| CCn1ncc(C#Cc2cnc(NC)c3cnc(NC(=O)C4CC4)cc23)n1 [Example 805, N-(5-((2-ethyl-2H-1,2,3-triazol-4-yl)ethynyl)-8-(methylamino)-2,7-naphthyridin-3-yl)cyclopropanecarboxamide] | ≤ 0.5 | ≤ 0.1 |
| CNc1ncc(C#Cc2ccc(-n3cccn3)cc2)c2cc(NC(=O)C3CC3)ncc12 [Example 806, N-(5-((4-(1H-pyrazol-1-yl)phenyl)ethynyl)-8-(methylamino)-2,7-naphthyridin-3-yl)cyclopropanecarboxamide] | ≤ 0.5 | ≤ 0.1 |
| CNc1ncc(C#Cc2ccc3nc4n(c3c2)CCCC4)c2cc(NC(=O)C3CC3)ncc12 [Example 807, N-(8-(methylamino)-5-((1,2,3,4-tetrahydrobenzo[4,5]imidazo[1,2-a]pyridin-8-yl)ethynyl)-2,7-naphthyridin-3-yl)cyclopropanecarboxamide] | ≤ 0.5 | ≤ 0.1 |
| CNc1ncc(C#Cc2ccc3nc4n(c3c2)CCC=C4)c2cc(NC(=O)C3CC3)ncc12 [Example 808, N-(5-((1,2-dihydrobenzo[4,5]imidazo[1,2-a]pyridin-8-yl)ethynyl)-8-(methylamino)-2,7-naphthyridin-3-yl)cyclopropanecarboxamide] | ≤ 0.5 | ≤ 0.1 |
| CNc1ncc(C#Cc2ccc3nc4n(c3c2)CCC(F)=C4)c2cc(NC(=O)C3CC3)ncc12 [Example 809, N-(5-((3-fluoro-1,2-dihydrobenzo[4,5]imidazo[1,2-a]pyridin-8-yl)ethynyl)-8-(methylamino)-2,7-naphthyridin-3-yl)cyclopropanecarboxamide] | ≤ 0.5 | ≤ 0.1 |
